Experimental data reported in patent US12415830B2, “Steroid compound, and use thereof and preparation method therefor” (Chengdu Kanghong Pharmaceutical Co Ltd, priority 2019, dated 2025).
Where two headings read alike, the source gives them in different places.

Columns and labels:
GABAA4 (α4β3δ) receptor = biological target: T1, GABAA4 (α4β3δ) receptor (Homo sapiens, UniProt P28472+P48169); assay: Patch-clamp electrophysiology, compound alone or with 10 nM GABA (Table 3); type: cell-based; conditions: for Emax: relative to peak current in GABA only
T1 construct: expressed in transfected cells; host or cells: HEK293 (transient transfection, plasmids 1:1:1)
T1 sequence (P48169 36-554): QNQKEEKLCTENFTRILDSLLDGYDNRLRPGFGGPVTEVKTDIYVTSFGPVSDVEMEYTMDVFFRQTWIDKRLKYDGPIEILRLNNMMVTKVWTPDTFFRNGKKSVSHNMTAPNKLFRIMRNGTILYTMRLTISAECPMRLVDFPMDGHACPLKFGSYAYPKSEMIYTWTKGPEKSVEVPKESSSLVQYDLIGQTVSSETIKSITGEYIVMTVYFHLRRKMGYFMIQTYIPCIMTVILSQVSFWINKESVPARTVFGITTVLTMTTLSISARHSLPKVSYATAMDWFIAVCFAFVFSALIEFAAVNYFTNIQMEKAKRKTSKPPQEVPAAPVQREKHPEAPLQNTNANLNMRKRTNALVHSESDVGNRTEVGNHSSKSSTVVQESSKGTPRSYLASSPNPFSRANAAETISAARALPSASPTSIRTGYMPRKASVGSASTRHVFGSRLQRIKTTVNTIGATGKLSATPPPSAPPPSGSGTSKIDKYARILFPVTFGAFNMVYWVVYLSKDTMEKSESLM
T1 sequence (P28472 26-473): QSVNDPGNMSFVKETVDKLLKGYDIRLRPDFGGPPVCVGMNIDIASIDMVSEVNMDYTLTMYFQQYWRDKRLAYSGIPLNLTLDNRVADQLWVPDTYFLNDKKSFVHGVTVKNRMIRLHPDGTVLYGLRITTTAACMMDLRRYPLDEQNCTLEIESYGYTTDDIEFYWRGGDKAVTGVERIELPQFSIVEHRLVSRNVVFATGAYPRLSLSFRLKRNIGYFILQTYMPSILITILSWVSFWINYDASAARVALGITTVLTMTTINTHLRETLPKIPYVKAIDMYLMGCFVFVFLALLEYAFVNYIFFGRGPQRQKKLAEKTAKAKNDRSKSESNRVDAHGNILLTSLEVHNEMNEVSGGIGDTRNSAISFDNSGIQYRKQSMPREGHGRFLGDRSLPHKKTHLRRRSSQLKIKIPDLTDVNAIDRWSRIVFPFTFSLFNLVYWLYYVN
T1 sequence (O14764 25-452 partner): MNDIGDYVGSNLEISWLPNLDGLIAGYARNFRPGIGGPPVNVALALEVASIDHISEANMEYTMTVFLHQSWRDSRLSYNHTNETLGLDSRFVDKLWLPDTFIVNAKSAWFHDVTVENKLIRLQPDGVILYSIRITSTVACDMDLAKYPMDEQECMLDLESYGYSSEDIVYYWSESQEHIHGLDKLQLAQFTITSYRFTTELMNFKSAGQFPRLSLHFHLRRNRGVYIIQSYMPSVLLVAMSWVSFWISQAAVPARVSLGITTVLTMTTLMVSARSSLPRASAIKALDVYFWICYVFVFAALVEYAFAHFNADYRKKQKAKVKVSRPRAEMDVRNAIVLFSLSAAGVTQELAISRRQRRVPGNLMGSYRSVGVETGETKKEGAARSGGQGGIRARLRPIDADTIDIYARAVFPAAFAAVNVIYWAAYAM
Method: The present invention applies the two subunits of the recombinant GABAA receptor: α1β2γ2 and α4β3δ to evaluate the potency of the exemplary compounds in vitro by patch-clamp electrophysiology.
Extracellular fluid: 140 mM NaCl, 5 mM CsCl, 2 mM CaCl2·2H2O, 1 mM MgCl2·6H2O, 5 mM HEPES, 10 mM D-Glucose, pH=7.4 (NaOH).
Intracellular fluid: 130 mM CsCl, 0.1 mM CaCl2·H2O, 2 mM MgCl2·6H2O, 1.1 mM EGTA, 5 mM Na2-ATP, 10 mM HEPES, pH=7.2 (CsOH).
HEK293 cell line was cultured in DMEM containing 10% fetal bovine serum and 5% carbon dioxide at 37° C.
Cell passage: The old medium was removed, and the cells were washed once with PBS. Then 1 mL 0.25%-Trypsin-EDTA solution was added to digest cells. The culture dish was incubated at 37° C. in pre-warmed incubator for 0.5 minutes. As soon as cells were detached, about 5 mL 37° C. pre-warmed complete medium was added. Cell aggregates were dissociated by gentle pipetting. The cell suspension was transferred into a sterile centrifuge tube and then the cell suspension was be spun at approximately 1000 rpm for 5 minutes. The cells were amplified or maintained by seeding 2.5×10^5 cells in a 6 cm dish (final medium volume: 5 mL). For transfection, 8×10^3 cells were plated onto coverslips, and cultured in a 24-well plate (final medium volume: […]).
Transfection: Second day, the transfection of GABAA4 (α4, β3, δ plasmid ratio 1:1:1) was performed. The X-tremeGENE HP DAN Transfection Reagents kit were used. The ratio of the plasmid and transfection reagent was 1 μg: 2 μL. The amount of plasmid in the 24-well plate was 0.5 μg per well, and the transfection reagent was 1 μL. The following specific steps were taken for preparing the 12 wells: The 600 μL Opti-MEM was added to a sterile centrifuge tube along with 6 μg of plasmid and was allowed to mix well; Then, the 12 μL of transfection reagent was added, mixed well following 15 min incubation at room temperature. The transfection complex was then inoculated into the cell, 50 μL per well, and the transfection complex was lightly stirred and mixed.
This mixture was changed on the third day, and the patch-clamp was performed on the fourth day.
Glass pipette (BF 150-86-10, Sutter Instruments) was pulled using a micropipette puller (P97, Sutter Instruments). The glass pipette was manipulated using a micro-manipulator (MP285, Sutter Instruments) under the microscope (IX71, Olympus). After touching the cell, a slight suction was applied to achieve high seal resistance (GQ). Fast capacitance (in pF) compensation was made after achieving high seal, and the membrane was broken. Cell capacitance (in pF) compensation was made from whole-cell capacitance compensation after the whole cell mode was achieved. No leak subtraction was made.
The test and control solutions flowed into a recording chamber mounted on the stage of an inverted microscope via a gravity-fed solution delivery system. During the experiment, solutions were withdrawn from the recording chamber by vacuum aspiration. Each concentration was tested at multiple times. All tests were performed at room temperature.
Whole cell model recorded GABAA4 receptors current experimental protocol was indicated as follows: When sealing, cell was at a holding potential of −70 mV, with gap-free mode to record the peak current. The cell would be applied with 10 nM GABA to active current. After the test articles application for 30 s, each concentration of test articles was applied with 10 nM GABA followed by 2 minutes washout using extracellular solution. Finally, 10 μM GABA was used as a positive control. The data were collected by EPC-10 amplifier and stored in PatchMaster (HEKA) software.
The following criteria are used to determine whether the data is acceptable: • (1) Electrode resistance <5MΩ • (2) Seal resistance >1GΩ • (3) The start of access resistance <15 MΩ • (4) The end of access resistance <15 MΩ • (5) No obvious spontaneous current decay. • (6) No obvious current leakage when the membrane potential is-70 mv. […]

mice [1] = assay: Elevated Plus Maze (EPM) testing; type: in vivo; conditions: 5 consecutive days, 30 min after last administration, male mice
Text: 57.3.2 Elevated Plus Maze (EPM) testing: EPM for exploratory behavior was used to assess general motor and anxiety-like behavior that was consisting of two open arms and two closed arms extending from a common central platform, thus forming anxiety-like symptoms. The anxiolytic compound would relieve the anxiety conflict status of animals in the test system. The experimental mice were randomly divided into 4 groups based on weight, including a negative control group, two different dosage groups (1 mg/kg and 3 mg/kg) of test compounds (KH004 or KH022), and every group had 10 male mice. Mice were administered with corresponding dosage for test intervention for 5 consecutive days in advance, and conducting anxiolytic experiments after 30 min of the last administration. The percentage of the retention time (latency) of mice open arms were used as the main index to evaluate the anxiolytic effect of KH004 and KH022, the results are shown in Table 5.

mice [2] = assay: Light-dark shuttle box anti-anxiety test; type: in vivo; conditions: 5 consecutive days, 30 min after last administration, male mice
Text: 57.3.1 light-dark shuttle box: The light-dark shuttle box is a standard and well characterized assay for anxiolytic effects of the exemplary compounds. Mice naturally avoid the light of the box because light makes mice evasive and stressful, but the exploration habit of mice also prompts mice to try to explore a bright box. Increased time on the light of the box by the exemplary compounds reflects an anxiolytic effect on mice. The experimental mice were randomly divided into 5 groups based on weight, including a negative control group, two different dosage groups (1 mg/kg and 3 mg/kg) of the tested compounds (KH004 or KH022), and every group had 10 male mice. Mice were administered with corresponding dosage for tested intervention for 5 consecutive days in advance, and conducting anxiolytic experiments after 30 min of the last administration. The retention time in the light box was selected as the main index for evaluating the anti-anxiety effect of KH004 and KH022.

[3] = with 10 nM GABA, read-out: Emax (with 10 nM GABA)
[4] = without GABA, read-out: Emax (without GABA)
[5] = with 10 nM GABA, read-out: EC50 (with 10 nM GABA)

SMILES	EC50 (GABAA4 (α4β3δ) receptor; EC50 (with 10 nM GABA), with 10 nM GABA) [nM]	Emax (GABAA4 (α4β3δ) receptor; [3]) [%]	Emax (GABAA4 (α4β3δ) receptor; [4]) [%]	The retention time of mice open arms (mice [1]; 1 mg/kg) [%]	The retention time of mice open arms (mice [1]; 3 mg/kg) [%]	The retention time in the light box (mice [2]; 1.0 mg/kg) [%]	The retention time in the light box (mice [2]; 3.0 mg/kg) [%]	EC50 (GABAA4 (α4β3δ) receptor; [5]) [nM]	EC50 (GABAA4 (α4β3δ) receptor; without GABA, read-out: EC50 (without GABA)) [nM]
C[C@@]1(O)CC[C@H]2[C@H](CC[C@@H]3[C@@H]2CC[C@]2(C)[C@@H](C(=O)Cn4cc(C#N)cn4)CC[C@@H]32)C1 [The control, reference compound]	219	149	114	–	–	–	–	–	–
C[C@@]1(O)CC[C@@]2(C)[C@@H](CC[C@@H]3[C@@H]2CC[C@]2(C)[C@@H](C(=O)Cn4ncnn4)CCC[C@@H]32)C1 [KH022]	–	88.6	45.8	31.40 ± 16.41	39.46 ± 11.82	50.00 ± 4.59	56.66 ± 7.96	386	–
C[C@]12CC[C@@H](O)C[C@@H]1CC[C@@H]1[C@@H]2CC[C@]2(C)[C@@H](C(=O)Cn3ncnn3)CCC[C@@H]12 [KH004]	–	172	158	27.21 ± 11.15	36.44 ± 13.28	50.30 ± 6.89	53.91 ± 9.37	135	172
